Data: patent US7799821B2, “Therapeutic compounds” (Allergan, Inc., priority 2004, dated 2010)

Tests used:
hEP4/Gqs5 = molecular target: T1, hEP4/Gqs5 (Homo sapiens, UniProt P35408); assay: FLIPR calcium signal, hEP4; assay type: cell-based; details: FLIPR Ca2+ signal, HEK-293(EBNA); read-out: FUNCTIONAL EC50 HEP4
T1 construct: expressed in transfected cells; host or cells: HEK-293(EBNA)
Outline: (§1)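 HEK-293(EBNA) cells stably expressing the recombinant human receptor were loaded with 2 μM Fluo-4 AM for 45 min and read on FLIPR at 37° C in HBSS-HEPES pH 7.4. Peak fluorescence rise was expressed relative to buffer and standard agonist controls (BW245C, PGE2 or U-46619 by receptor); compounds were run 10^−5 to 10^−11 M in duplicate, n≧3.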

hTP = molecular target: T2, hTP (Homo sapiens, UniProt P21731); assay: FLIPR calcium signal, hTP; assay type: cell-based; details: FLIPR Ca2+ signal, HEK-293(EBNA); read-out: FUNCTIONAL EC50 HTP
T2 construct: expressed in transfected cells; host or cells: HEK-293(EBNA)
T2 sequence (P21731 1-343): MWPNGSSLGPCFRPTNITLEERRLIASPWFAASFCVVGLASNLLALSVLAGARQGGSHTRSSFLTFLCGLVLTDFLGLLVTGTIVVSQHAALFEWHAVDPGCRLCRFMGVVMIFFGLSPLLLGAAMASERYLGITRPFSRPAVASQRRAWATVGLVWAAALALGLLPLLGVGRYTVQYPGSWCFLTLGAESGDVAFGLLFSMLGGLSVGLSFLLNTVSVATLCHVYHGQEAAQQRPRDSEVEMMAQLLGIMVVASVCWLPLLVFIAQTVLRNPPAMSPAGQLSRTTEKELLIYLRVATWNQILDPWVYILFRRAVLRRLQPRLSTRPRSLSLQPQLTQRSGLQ
Experimental: (§2) HEK-293(EBNA) cells, stably expressing one type or subtype of recombinant human prostaglandin receptors (prostaglandin receptors expressed: hDP/Gqs5; hEP1; hEP2/Gqs5; hEP3A/Gqi5; hEP4/Gqs5; hFP; hIP; hTP), were cultured in 100 mm culture dishes in high-glucose DMEM medium containing 10% fetal bovine serum, 2 mM 1-glutamine, 250 μg/ml geneticin (G418) and 200 μg/ml hygromycin B as selection markers, and 100 units/ml penicillin G, 100 μg/ml streptomycin and 0.25 μg/ml amphotericin B. • (b) Calcium Signal Studies on the FLIPR™
(§3) Cells were seeded at a density of 5×10^4 cells per well in Biocoat® Poly-D-lysine-coated black-wall, clear-bottom 96-well plates (Becton-Dickinson) and allowed to attach overnight in an incubator at 37° C. Cells were then washed two times with HBSS-HEPES buffer (Hanks Balanced Salt Solution without bicarbonate and phenol red, 20 mM HEPES, pH 7.4) using a Denley Cellwash plate washer (Labsystems). After 45 minutes of dye-loading in the dark, using the calcium-sensitive dye Fluo-4 AM at a final concentration of 2 μM, plates were washed four times with HBSS-HEPES buffer to remove excess dye leaving 100 μl in each well. Plates were re-equilibrated to 37° C. for a few minutes.
(§4) Cells were excited with an Argon laser at 488 nm, and emission was measured through a 510-570 nm bandwidth emission filter (FLIPR™, Molecular Devices, Sunnyvale, Calif.). Drug solution was added in a 50 μl volume to each well to give the desired final concentration. The peak increase in fluorescence intensity was recorded for each well. On each plate, four wells each served as negative (HBSS-HEPES buffer) and positive controls (standard agonists: BW245C (hDP); PGE2 (hEP1; hEP2/Gqs5; hEP3A/Gqi5; hEP4/Gqs5); PGF2α (hFP); carbacyclin (hIP); U-46619 (hTP), depending on receptor). The peak fluorescence change in each drug-containing well was then expressed relative to the controls.
(§5) Compounds were tested in a high-throughput (HTS) or concentration-response (CoRe) format. In the HTS format, forty-four compounds per plate were examined in duplicates at a concentration of 10^−5 M. To generate concentration-response curves, four compounds per plate were tested in duplicates in a concentration range between 10^−5 and 10^−11 M. The duplicate values were averaged. In either, HTS or CoRe format each compound was tested on at least 3 separate plates using cells from different passages to give an n≧3.

hEP3A/Gqi5 = molecular target: T3, hEP3A/Gqi5 (Homo sapiens, UniProt P43115); assay: FLIPR calcium signal, hEP3A; assay type: cell-based; details: FLIPR Ca2+ signal, HEK-293(EBNA); read-out: FUNCTIONAL EC50 HEP3A
T3 construct: expressed in transfected cells; host or cells: HEK-293(EBNA)
T3 sequence (P43115 1-390): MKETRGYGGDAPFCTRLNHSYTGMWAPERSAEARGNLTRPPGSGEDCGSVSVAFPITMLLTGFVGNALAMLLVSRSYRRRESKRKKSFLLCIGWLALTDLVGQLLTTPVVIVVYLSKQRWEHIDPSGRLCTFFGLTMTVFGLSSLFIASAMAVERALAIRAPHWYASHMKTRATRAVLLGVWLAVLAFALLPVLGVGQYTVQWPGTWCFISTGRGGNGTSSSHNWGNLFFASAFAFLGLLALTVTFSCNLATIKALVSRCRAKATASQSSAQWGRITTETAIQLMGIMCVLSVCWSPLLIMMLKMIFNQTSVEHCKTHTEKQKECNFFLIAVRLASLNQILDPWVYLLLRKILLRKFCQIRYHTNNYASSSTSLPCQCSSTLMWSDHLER
Experimental: as §2, §3, §4, §5

hEP2/Gqs5 = molecular target: T4, hEP2/Gqs5 (Homo sapiens, UniProt P43116); assay: FLIPR calcium signal, hEP2; assay type: cell-based; details: FLIPR Ca2+ signal, HEK-293(EBNA); read-out: FUNCTIONAL EC50 HEP2
T4 construct: expressed in transfected cells; host or cells: HEK-293(EBNA)
Outline: as §1

human EP2 receptors = molecular target: T5, human EP2 receptors (Homo sapiens, UniProt P43116); assay: Competition radioligand binding ([3H]PGE2), EP2; details: read-out: BINDING IC50 HEP2
T5 construct: expressed in transfected cells; host or cells: HEK 293

hDP/Gqs5 = molecular target: T6, hDP/Gqs5 (Homo sapiens, UniProt Q13258); assay: FLIPR calcium signal, hDP; assay type: cell-based; details: FLIPR Ca2+ signal, HEK-293(EBNA); read-out: FUNCTIONAL EC50 HDP
T6 construct: expressed in transfected cells; host or cells: HEK-293(EBNA)
T6 sequence (Q13258 1-359): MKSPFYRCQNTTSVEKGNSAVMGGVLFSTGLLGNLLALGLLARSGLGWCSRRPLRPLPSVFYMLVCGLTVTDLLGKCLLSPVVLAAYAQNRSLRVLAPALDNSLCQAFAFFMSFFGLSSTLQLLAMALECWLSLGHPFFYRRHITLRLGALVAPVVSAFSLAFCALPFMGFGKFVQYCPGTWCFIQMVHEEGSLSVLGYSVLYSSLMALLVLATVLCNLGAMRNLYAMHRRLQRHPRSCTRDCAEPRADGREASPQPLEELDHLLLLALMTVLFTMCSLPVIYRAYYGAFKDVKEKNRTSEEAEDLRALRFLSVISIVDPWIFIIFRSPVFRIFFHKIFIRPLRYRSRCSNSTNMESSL
Experimental: as §2, §3, §4, §5

hIP = molecular target: T7, hIP (Homo sapiens, UniProt P43119); assay: FLIPR calcium signal, hIP; assay type: cell-based; details: FLIPR Ca2+ signal, HEK-293(EBNA); read-out: FUNCTIONAL EC50 HIP
T7 construct: expressed in transfected cells; host or cells: HEK-293(EBNA)
Experimental: as §2, §3, §4, §5

hEP1 = molecular target: T8, hEP1 (Homo sapiens, UniProt P34995); assay: FLIPR calcium signal, hEP1; assay type: cell-based; details: FLIPR Ca2+ signal, HEK-293(EBNA); read-out: FUNCTIONAL EC50 HEP1
T8 construct: expressed in transfected cells; host or cells: HEK-293(EBNA)
T8 sequence (P34995 1-402): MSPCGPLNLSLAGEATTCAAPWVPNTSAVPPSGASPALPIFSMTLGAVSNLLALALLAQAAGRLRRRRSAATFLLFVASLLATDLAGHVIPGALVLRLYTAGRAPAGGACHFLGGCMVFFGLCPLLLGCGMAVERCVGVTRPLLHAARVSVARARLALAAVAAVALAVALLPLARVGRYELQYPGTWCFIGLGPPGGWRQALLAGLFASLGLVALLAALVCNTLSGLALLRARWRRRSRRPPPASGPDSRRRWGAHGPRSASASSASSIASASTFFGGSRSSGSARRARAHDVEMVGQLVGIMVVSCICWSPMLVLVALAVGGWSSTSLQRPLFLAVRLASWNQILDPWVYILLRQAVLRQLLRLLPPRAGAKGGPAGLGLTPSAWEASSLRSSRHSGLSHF
Experimental: as §2, §3, §4, §5

EP4 receptors = molecular target: T9, EP4 receptors (Homo sapiens, UniProt P35408); assay: Radioligand binding ([3H]PGE2), EP4; details: read-out: BINDING IC50 HEP4
T9 construct: expressed in transfected cells; host or cells: HEK-293
Experimental: HEK-293 cells stably expressing the human or feline FP receptor, or EP1, EP2, or EP4 receptors were washed with TME buffer, scraped from the bottom of the flasks, and homogenized for 30 sec using a Brinkman PT 10/35 polytron. TME buffer was added to achieve a final 40 ml volume in the centrifuge tubes (the composition of TME is 100 mM TRIS base, 20 mM MgCl2, […]; 10N HCl is added to achieve a pH of 7.4).
The cell homogenate was centrifuged at 19000 r.p.m. for 20 min at 4° C. using a Beckman Ti-60 rotor. The resultant pellet was resuspended in TME buffer to give a final 1 mg/ml protein concentration, as determined by Biorad assay. Radioligand binding competition assays vs. [^3H-]17 —phenyl PGF2α (5 nM) were performed in a 100 μl volume for 60 min. Binding reactions were started by adding plasma membrane fraction. The reaction was terminated by the addition of 4 ml ice-cold TRIS-HCl buffer and rapid filtration through glass fiber GF/B filters using a Brandel cell harvester. The filters were washed 3 times with ice-cold buffer and oven dried for one hour.
[^3H-] PGE2 (specific activity 180 Ci mmol) was used as the radioligand for EP receptors. [^3H] 17-phenyl PGF2α was employed for FP receptor binding studies. Binding studies employing EP1, EP2, EP4 and FP receptors were performed in duplicate in at least three separate experiments. A 200 μl assay volume was used. Incubations were for 60 min at 25° C. and were terminated by the addition of 4 ml of ice-cold 50 mM TRIS-HCl, followed by rapid filtration through Whatman GF/B filters and three additional 4 ml washes in a cell harvester (Brandel). Competition studies were performed using a final concentration of 5 nM [^3H]—PGE2, or 5 nM [^3H] 17-phenyl PGF2α and non-specific binding determined with 10^−5M of unlabeled PGE2, or 17-phenyl PGF2α, according to receptor subtype studied.

T1 sequence (P35408 whole entry): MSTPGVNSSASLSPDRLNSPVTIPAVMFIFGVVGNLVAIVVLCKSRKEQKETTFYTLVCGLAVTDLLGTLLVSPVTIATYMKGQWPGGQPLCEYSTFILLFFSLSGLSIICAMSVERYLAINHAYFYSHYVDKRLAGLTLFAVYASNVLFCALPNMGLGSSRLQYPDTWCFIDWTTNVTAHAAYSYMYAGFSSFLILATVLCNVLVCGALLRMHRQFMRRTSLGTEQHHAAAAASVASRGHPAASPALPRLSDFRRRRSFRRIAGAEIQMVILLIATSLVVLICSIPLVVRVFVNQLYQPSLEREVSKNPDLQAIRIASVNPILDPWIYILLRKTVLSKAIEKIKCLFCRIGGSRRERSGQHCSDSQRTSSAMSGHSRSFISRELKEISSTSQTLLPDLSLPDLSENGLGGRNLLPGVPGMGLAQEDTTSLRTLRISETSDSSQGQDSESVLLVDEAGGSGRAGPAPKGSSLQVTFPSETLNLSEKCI
T7 sequence (P43119 whole entry): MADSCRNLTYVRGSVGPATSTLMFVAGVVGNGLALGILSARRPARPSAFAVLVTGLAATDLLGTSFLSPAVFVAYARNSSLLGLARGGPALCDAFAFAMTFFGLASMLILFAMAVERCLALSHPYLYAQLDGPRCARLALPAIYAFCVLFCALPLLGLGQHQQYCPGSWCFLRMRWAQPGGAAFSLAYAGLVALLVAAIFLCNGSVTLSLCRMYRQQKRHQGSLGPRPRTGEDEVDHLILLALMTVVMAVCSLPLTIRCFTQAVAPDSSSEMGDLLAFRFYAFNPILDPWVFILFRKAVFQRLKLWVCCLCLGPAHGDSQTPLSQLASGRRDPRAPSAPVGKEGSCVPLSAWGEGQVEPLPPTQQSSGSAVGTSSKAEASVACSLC
T4 sequence (P43116 whole entry): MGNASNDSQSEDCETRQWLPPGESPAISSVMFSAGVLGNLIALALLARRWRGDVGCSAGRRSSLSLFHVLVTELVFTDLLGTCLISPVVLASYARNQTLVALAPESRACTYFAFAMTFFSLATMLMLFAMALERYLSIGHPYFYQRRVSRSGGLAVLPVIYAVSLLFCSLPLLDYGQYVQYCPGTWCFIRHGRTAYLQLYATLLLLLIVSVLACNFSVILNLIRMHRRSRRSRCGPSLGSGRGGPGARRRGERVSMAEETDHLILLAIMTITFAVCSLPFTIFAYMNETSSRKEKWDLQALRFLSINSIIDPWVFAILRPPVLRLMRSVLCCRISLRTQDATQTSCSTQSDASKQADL
T5 sequence (P43116 whole entry): as above
T9 sequence (P35408 whole entry): as the sequence (P35408 whole entry) above

Structure (SMILES)	EC50 (hEP4/Gqs5)	EC50 (hTP)	EC50 (hEP3A/Gqi5)	EC50 (hEP2/Gqs5)	IC50 (human EP2 receptors)	EC50 (hDP/Gqs5)	EC50 (hIP)	EC50 (hEP1)	IC50 (EP4 receptors)
COC(=O)CCCCCC[C@H]1C(=O)C[C@@H](O)[C@@H]1c1ccc2c(c1)CCC2	> 10 µM	> 10 µM	> 10 µM	> 10 µM					
O=C(O)CCCCCC[C@@H]1[C@@H](c2ccc3c(c2)CCC3O)[C@H](O)C[C@H]1Cl (some centres unmarked)		2.99 µM		0.529 µM	13.1 µM				
COC(=O)CCCCCC[C@@H]1[C@@H](c2ccc3c(c2)CCC3O)[C@H](O)C[C@H]1Cl (some centres unmarked)	22.5 µM	17.5 µM							
CCCC1(C(O)c2cccc([C@H]3[C@H](O)CC(=O)[C@@H]3CCCCCCC(=O)OC)c2)CCC1 (some centres unmarked)	> 10 µM		> 10 µM	> 10 µM		> 10 µM	> 10 µM		
CC(C)(C)c1ccc([C@@H]2[C@@H](C/C=C\CCCC(=O)O)[C@H](Cl)C[C@H]2O)cc1	> 10 µM	1.27 µM	2.05 µM	0.118 µM		> 10 µM		> 10 µM	
Cc1ccc([C@H]2[C@H](O)CC(=O)[C@@H]2CCCCCCC(=O)O)cc1		0.094 µM		3.13 µM				1.87 µM	
CCCC1(C(O)c2cccc([C@@H]3[C@@H](C/C=C\CCCC(=O)O)[C@H](Cl)C[C@H]3O)c2)CCC1 (some centres unmarked)		> 10 µM	0.455 µM	0.322 µM		> 10 µM			
O=C(O)CCCCCC[C@H]1C(=O)C[C@@H](O)[C@@H]1c1ccc(C2(O)CCC2)cc1				> 10 µM			> 10 µM		
CC(C)(C)c1ccc([C@H]2[C@H](O)CC(=O)[C@@H]2C/C=C\CCCC(=O)O)cc1				1.71 µM				> 10 µM	
CC(C)(C)c1ccc([C@@H]2[C@@H](CCCCCCC(=O)O)[C@H](Cl)C[C@H]2O)cc1 [drawing 70]		> 10 µM	> 10 µM	0.264 µM		> 10 µM		> 10 µM	
COC(=O)CCCCCC[C@H]1C(=O)C[C@@H](O)[C@@H]1c1ccc(C(C)(C)C)cc1	> 10 µM	> 10 µM	> 10 µM	0.936 µM					
O=C(O)CCCCCC[C@@H]1[C@@H](c2ccc3c(c2)CCC3)[C@H](O)C[C@H]1Cl		0.2 µM		0.818 µM	6.25 µM			0.221 µM	
COC(=O)CCCCCC[C@@H]1[C@@H](c2ccc(C3(O)CCC3)cc2)[C@H](O)C[C@H]1Cl		> 10 µM		> 10 µM					
CCCC1(C(O)c2cccc([C@@H]3[C@@H](C/C=C\CCCC(=O)OC)[C@H](Cl)C[C@H]3O)c2)CCC1 (some centres unmarked)		> 10 µM	> 10 µM	> 10 µM					
CC(C)(C)c1ccc([C@H]2[C@H](O)CC(=O)[C@@H]2CCCCCCC(=O)O)cc1		4.27 µM	3.39 µM	0.102 µM			> 10 µM	> 10 µM	
COC(=O)CCCCCC[C@@H]1[C@@H](c2ccc3c(c2)CCC3)[C@H](O)C[C@H]1Cl		0.506 µM							13.1 µM
